Experimental data from PMC9596378, “Discovery and molecular basis of subtype-selective cyclophilin inhibitors” (Nature Chemical Biology, 2022).
Several values for one entry are separate records, joined by “and”; a condition that tells them apart may be missing. Equal entries are not always repeated. Where two headings read alike, the source gives them in different places.

Key:
Experiment in all cases: Chymotrypsin coupled prolyl-isomerase assay;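 for NKTR prolyl-isomerase raw dose-response reading (Fig. 6c): Per-well observed rate constant from one-phase association fit in s−1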;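 for PPIL1 prolyl-isomerase raw dose-response reading (Fig. 6c): Per-well observed rate constant from one-phase association fit in s−1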
Format in all cases: biochemical
[1] = biological target: T1, NKTR (Homo sapiens, UniProt P30414);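 for NKTR prolyl-isomerase raw dose-response reading (Fig. 6c): Per-well observed rate constant from one-phase association fit in s−1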
T1 construct: NKTR (UniProtKB Entry P30414: residues 7–179); host or cells: E. coli BL21(DE3)
T1 sequence (P30414 7-179): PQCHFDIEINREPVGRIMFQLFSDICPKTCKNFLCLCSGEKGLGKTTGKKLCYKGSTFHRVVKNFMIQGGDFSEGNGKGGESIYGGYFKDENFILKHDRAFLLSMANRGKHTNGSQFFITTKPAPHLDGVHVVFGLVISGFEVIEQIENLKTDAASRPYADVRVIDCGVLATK

[2] = biological target: T2, PPIL1 (Homo sapiens, UniProt Q9Y3C6);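 for PPIL1 prolyl-isomerase raw dose-response reading (Fig. 6c): Per-well observed rate constant from one-phase association fit in s−1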
T2 construct: PPIL1 (UniProtKB Entry Q9Y3C6: residues 1–166); made in house; host or cells: E. coli BL21(DE3)
T2 sequence (Q9Y3C6 1-166): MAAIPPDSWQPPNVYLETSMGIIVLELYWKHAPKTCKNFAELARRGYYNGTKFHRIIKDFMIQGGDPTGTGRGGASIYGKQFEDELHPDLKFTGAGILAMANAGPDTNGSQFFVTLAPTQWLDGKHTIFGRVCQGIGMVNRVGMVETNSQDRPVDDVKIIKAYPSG

[3] = biological target: T3, PPWD1 (Homo sapiens, UniProt Q96BP3)
T3 construct: PPWD1 (UniProtKB Entry Q96BP3: residues 473–646); host or cells: E. coli BL21(DE3)
T3 sequence (Q96BP3 473-646): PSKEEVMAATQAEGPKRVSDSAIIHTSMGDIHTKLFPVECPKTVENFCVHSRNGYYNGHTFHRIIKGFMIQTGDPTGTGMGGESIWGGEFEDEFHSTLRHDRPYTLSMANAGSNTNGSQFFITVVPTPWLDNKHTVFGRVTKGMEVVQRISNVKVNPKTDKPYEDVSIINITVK
Procedure: Five microliters of compound pre-dissolved in 5% DMSO/assay buffer was then added to appropriate wells and incubated at 2–3 °C for 5 min. Five microliters of 0.5 mM α-chymotrypsin from bovine pancreas (Type II, lyophilized powder, Millipore-Sigma) in 20% 1 mM HCl/Assay Buffer was then added to each well and incubated at 2–3 °C for 5 min. The plate was then quickly transferred to a FLIPR Tetra High-Throughput Cellular Screening System (Molecular Devices). Using the internal liquid handling system of the FLIPR, 1 µL 0.5 mM Suc-AAPF-AMC (Chymotrypsin Substrate II, Millipore-Sigma) dissolved in 0.55 M LiCl/2,2,2-trifluoroethanol was added to each well, which was then mixed for 5 s, followed by immediate fluorescence measurements every 1 s for 330 s using a 360–380 nm excitation LED module and a 400–460 nm emission filter. […] Raw fluorescence data was analyzed by non-linear regression analysis with Prism v.9 by fitting one-phase association curves to each well. Analyses were halted after the calculated maximum fluorescent value owing to observed fluorescent bleaching during the sustained fluorescent plateau. Rate constants calculated for each well (s^−1) were then normalized to substrate only (no prolyl-isomerase) and enzyme + substrate only controls.

For `NC(=O)C1CCNC(=O)C=CC(=O)N2CCCC(Cc3ccccc3)(C2)C(=O)NC(Cc2ccc(-c3ccc(C=O)c(B(O)O)c3)cc2)C(=O)NCc2ccccc2CC(=O)N1` (stereo not shown) [Compound C3A], the “NKTR prolyl-isomerase raw dose-response reading (Fig. 6c)” value ([1]; Dose 0.00457247 µM) was 0.03021 and 0.03304 and 0.03422, the “NKTR prolyl-isomerase raw dose-response reading (Fig. 6c)” value ([1]; Dose 0.0137174 µM) was 0.0282 and 0.04075 and 0.02833 and the “NKTR prolyl-isomerase raw dose-response reading (Fig. 6c)” value ([1]; Dose 0.0411523 µM) was 0.03114 and 0.03658 and 0.02835. The “NKTR prolyl-isomerase raw dose-response reading (Fig. 6c)” value ([1]; Dose 0.123457 µM) was 0.03167 and 0.03382 and 0.0302, the “NKTR prolyl-isomerase raw dose-response reading (Fig. 6c)” value ([1]; Dose 0.37037 µM) was 0.03191 and 0.03367 and 0.02844 and the “NKTR prolyl-isomerase raw dose-response reading (Fig. 6c)” value ([1]; Dose 1.11111 µM) was 0.03612 and 0.0297 and 0.03587. For the same molecule, the “NKTR prolyl-isomerase raw dose-response reading (Fig. 6c)” value ([1]; Dose 3.33333 µM) was 0.03487 and 0.03208 and 0.0346, the “NKTR prolyl-isomerase raw dose-response reading (Fig. 6c)” value ([1]; Dose 10 µM) was 0.02874 and 0.02696 and 0.02891 and the IC50 ([1]; Independent replicate 1, read-out: IC50 NKTR) was over 10 µM. For the same molecule, the IC50 ([1]; Independent replicate 2, read-out: IC50 NKTR) was about 30 µM, the IC50 ([1]; Independent replicate 3, read-out: IC50 NKTR) was about 30 µM and the IC50 ([1]; Independent replicate 4, read-out: IC50 NKTR) was about 40 µM. The IC50 ([1]; wild-type NKTR, read-out: Wild-Type Cyclophilin Prolyl Isomerase Inhibition IC50 Values, NKTR) was 33 µM, the “PPIL1 prolyl-isomerase raw dose-response reading (Fig. 6c)” value ([2]; Dose 0.00114312 µM) was 0.05471 and 0.0599 and 0.05622 and the “PPIL1 prolyl-isomerase raw dose-response reading (Fig. 6c)” value ([2]; Dose 0.00342936 µM) was 0.05168 and 0.05762 and 0.07551. The “PPIL1 prolyl-isomerase raw dose-response reading (Fig. 6c)” value ([2]; Dose 0.00457247 µM) was 0.05739 and 0.05515 and 0.06362 and 0.05346 and 0.05755 and 0.06002 and 0.05207 and 0.04334, the “PPIL1 prolyl-isomerase raw dose-response reading (Fig. 6c)” value ([2]; Dose 0.0102881 µM) was 0.04812 and 0.0449 and 0.05106 and the “PPIL1 prolyl-isomerase raw dose-response reading (Fig. 6c)” value ([2]; Dose 0.0308642 µM) was 0.06685 and 0.05223 and 0.05525. The “PPIL1 prolyl-isomerase raw dose-response reading (Fig. 6c)” value ([2]; Dose 0.0925926 µM) was 0.05203 and 0.04221 and 0.05411, the “PPIL1 prolyl-isomerase raw dose-response reading (Fig. 6c)” value ([2]; Dose 0.277778 µM) was 0.04184 and 0.0372 and 0.04929 and the “PPIL1 prolyl-isomerase raw dose-response reading (Fig. 6c)” value ([2]; Dose 0.833333 µM) was 0.02447 and 0.02506 and 0.03512. The “PPIL1 prolyl-isomerase raw dose-response reading (Fig. 6c)” value ([2]; Dose 2.5 µM) was 0.0232 and 0.01951 and 0.02784, the IC50 ([2]; Independent replicate 1, read-out: IC50 PPIL1) was 0.4 ± 0.2 µM and the IC50 ([2]; Independent replicate 2, read-out: IC50 PPIL1) was 0.5 ± 0.2 µM. The IC50 ([2]; Independent replicate 3, read-out: IC50 PPIL1) was 0.25 ± 0.06 µM, the IC50 ([2]; Independent replicate 4, read-out: IC50 PPIL1) was 0.36 ± 0.08 µM and the IC50 ([2]; prolyl-isomerase inhibition, 5 nM cyclophilin, read-out: IC50 PPIL1) was 0.4 ± 0.1 µM. The IC50 ([2]; wild-type PPIL1, read-out: Wild-Type Cyclophilin Prolyl Isomerase Inhibition IC50 Values, PPIL1) was 0.4 µM, the “PPWD1 prolyl-isomerase raw dose-response reading (Fig. 6c)” value ([3]; Dose 0.00457247 µM) was 0.0469 and 0.04534 and 0.05629 and the “PPWD1 prolyl-isomerase raw dose-response reading (Fig. 6c)” value ([3]; Dose 0.0137174 µM) was 0.04565 and 0.04397 and 0.06065. For the same molecule, the “PPWD1 prolyl-isomerase raw dose-response reading (Fig. 6c)” value ([3]; Dose 0.0411523 µM) was 0.05156 and 0.0487 and 0.05013, the “PPWD1 prolyl-isomerase raw dose-response reading (Fig. 6c)” value ([3]; Dose 0.123457 µM) was 0.04255 and 0.04648 and 0.048 and the “PPWD1 prolyl-isomerase raw dose-response reading (Fig. 6c)” value ([3]; Dose 0.37037 µM) was 0.04707 and 0.04395 and 0.05999. The “PPWD1 prolyl-isomerase raw dose-response reading (Fig. 6c)” value ([3]; Dose 1.11111 µM) was 0.04661 and 0.0432 and 0.04546, the “PPWD1 prolyl-isomerase raw dose-response reading (Fig. 6c)” value ([3]; Dose 3.33333 µM) was 0.03786 and 0.03919 and 0.04546 and the “PPWD1 prolyl-isomerase raw dose-response reading (Fig. 6c)” value ([3]; Dose 10 µM) was 0.02858 and 0.03234 and 0.0406. The “PPWD1 prolyl-isomerase raw dose-response reading (Fig. 6c)” value ([3]; Dose 16.6667 µM) was 0.02581 and 0.0305 and 0.02503 and 0.03058 and 0.01822 and 0.02069 and 0.01922 and 0.02384, the IC50 ([3]; Independent replicate 1, read-out: IC50 PPWD1) was over 10 µM and the IC50 ([3]; Independent replicate 2, read-out: IC50 PPWD1) was 8 ± 4 µM. For the same molecule, the IC50 ([3]; Independent replicate 3, read-out: IC50 PPWD1) was 6 ± 2 µM, the IC50 ([3]; Independent replicate 4, read-out: IC50 PPWD1) was 9 ± 3 µM and the IC50 ([3]; prolyl-isomerase inhibition, 5 nM cyclophilin, read-out: IC50 PPWD1) was 8 ± 2 µM. It also gave an IC50 ([3]; wild-type PPWD1, read-out: Wild-Type Cyclophilin Prolyl Isomerase Inhibition IC50 Values, PPWD1) of 8 µM.
